Consider 3 molecules from PMC3896386 (Journal of medicinal chemistry, 2013).

Assay [1] concerns the target T1, RyR2-R4496C mutant HEK293 cell line (Mus musculus, UniProt E9Q401, R4495C). Conditions: previously reported; cited from earlier work.
In assay [2] the target is T1, RyR2-R4496C mutant HEK293 cell line.

T1 sequence (E9Q401 whole entry R4495C): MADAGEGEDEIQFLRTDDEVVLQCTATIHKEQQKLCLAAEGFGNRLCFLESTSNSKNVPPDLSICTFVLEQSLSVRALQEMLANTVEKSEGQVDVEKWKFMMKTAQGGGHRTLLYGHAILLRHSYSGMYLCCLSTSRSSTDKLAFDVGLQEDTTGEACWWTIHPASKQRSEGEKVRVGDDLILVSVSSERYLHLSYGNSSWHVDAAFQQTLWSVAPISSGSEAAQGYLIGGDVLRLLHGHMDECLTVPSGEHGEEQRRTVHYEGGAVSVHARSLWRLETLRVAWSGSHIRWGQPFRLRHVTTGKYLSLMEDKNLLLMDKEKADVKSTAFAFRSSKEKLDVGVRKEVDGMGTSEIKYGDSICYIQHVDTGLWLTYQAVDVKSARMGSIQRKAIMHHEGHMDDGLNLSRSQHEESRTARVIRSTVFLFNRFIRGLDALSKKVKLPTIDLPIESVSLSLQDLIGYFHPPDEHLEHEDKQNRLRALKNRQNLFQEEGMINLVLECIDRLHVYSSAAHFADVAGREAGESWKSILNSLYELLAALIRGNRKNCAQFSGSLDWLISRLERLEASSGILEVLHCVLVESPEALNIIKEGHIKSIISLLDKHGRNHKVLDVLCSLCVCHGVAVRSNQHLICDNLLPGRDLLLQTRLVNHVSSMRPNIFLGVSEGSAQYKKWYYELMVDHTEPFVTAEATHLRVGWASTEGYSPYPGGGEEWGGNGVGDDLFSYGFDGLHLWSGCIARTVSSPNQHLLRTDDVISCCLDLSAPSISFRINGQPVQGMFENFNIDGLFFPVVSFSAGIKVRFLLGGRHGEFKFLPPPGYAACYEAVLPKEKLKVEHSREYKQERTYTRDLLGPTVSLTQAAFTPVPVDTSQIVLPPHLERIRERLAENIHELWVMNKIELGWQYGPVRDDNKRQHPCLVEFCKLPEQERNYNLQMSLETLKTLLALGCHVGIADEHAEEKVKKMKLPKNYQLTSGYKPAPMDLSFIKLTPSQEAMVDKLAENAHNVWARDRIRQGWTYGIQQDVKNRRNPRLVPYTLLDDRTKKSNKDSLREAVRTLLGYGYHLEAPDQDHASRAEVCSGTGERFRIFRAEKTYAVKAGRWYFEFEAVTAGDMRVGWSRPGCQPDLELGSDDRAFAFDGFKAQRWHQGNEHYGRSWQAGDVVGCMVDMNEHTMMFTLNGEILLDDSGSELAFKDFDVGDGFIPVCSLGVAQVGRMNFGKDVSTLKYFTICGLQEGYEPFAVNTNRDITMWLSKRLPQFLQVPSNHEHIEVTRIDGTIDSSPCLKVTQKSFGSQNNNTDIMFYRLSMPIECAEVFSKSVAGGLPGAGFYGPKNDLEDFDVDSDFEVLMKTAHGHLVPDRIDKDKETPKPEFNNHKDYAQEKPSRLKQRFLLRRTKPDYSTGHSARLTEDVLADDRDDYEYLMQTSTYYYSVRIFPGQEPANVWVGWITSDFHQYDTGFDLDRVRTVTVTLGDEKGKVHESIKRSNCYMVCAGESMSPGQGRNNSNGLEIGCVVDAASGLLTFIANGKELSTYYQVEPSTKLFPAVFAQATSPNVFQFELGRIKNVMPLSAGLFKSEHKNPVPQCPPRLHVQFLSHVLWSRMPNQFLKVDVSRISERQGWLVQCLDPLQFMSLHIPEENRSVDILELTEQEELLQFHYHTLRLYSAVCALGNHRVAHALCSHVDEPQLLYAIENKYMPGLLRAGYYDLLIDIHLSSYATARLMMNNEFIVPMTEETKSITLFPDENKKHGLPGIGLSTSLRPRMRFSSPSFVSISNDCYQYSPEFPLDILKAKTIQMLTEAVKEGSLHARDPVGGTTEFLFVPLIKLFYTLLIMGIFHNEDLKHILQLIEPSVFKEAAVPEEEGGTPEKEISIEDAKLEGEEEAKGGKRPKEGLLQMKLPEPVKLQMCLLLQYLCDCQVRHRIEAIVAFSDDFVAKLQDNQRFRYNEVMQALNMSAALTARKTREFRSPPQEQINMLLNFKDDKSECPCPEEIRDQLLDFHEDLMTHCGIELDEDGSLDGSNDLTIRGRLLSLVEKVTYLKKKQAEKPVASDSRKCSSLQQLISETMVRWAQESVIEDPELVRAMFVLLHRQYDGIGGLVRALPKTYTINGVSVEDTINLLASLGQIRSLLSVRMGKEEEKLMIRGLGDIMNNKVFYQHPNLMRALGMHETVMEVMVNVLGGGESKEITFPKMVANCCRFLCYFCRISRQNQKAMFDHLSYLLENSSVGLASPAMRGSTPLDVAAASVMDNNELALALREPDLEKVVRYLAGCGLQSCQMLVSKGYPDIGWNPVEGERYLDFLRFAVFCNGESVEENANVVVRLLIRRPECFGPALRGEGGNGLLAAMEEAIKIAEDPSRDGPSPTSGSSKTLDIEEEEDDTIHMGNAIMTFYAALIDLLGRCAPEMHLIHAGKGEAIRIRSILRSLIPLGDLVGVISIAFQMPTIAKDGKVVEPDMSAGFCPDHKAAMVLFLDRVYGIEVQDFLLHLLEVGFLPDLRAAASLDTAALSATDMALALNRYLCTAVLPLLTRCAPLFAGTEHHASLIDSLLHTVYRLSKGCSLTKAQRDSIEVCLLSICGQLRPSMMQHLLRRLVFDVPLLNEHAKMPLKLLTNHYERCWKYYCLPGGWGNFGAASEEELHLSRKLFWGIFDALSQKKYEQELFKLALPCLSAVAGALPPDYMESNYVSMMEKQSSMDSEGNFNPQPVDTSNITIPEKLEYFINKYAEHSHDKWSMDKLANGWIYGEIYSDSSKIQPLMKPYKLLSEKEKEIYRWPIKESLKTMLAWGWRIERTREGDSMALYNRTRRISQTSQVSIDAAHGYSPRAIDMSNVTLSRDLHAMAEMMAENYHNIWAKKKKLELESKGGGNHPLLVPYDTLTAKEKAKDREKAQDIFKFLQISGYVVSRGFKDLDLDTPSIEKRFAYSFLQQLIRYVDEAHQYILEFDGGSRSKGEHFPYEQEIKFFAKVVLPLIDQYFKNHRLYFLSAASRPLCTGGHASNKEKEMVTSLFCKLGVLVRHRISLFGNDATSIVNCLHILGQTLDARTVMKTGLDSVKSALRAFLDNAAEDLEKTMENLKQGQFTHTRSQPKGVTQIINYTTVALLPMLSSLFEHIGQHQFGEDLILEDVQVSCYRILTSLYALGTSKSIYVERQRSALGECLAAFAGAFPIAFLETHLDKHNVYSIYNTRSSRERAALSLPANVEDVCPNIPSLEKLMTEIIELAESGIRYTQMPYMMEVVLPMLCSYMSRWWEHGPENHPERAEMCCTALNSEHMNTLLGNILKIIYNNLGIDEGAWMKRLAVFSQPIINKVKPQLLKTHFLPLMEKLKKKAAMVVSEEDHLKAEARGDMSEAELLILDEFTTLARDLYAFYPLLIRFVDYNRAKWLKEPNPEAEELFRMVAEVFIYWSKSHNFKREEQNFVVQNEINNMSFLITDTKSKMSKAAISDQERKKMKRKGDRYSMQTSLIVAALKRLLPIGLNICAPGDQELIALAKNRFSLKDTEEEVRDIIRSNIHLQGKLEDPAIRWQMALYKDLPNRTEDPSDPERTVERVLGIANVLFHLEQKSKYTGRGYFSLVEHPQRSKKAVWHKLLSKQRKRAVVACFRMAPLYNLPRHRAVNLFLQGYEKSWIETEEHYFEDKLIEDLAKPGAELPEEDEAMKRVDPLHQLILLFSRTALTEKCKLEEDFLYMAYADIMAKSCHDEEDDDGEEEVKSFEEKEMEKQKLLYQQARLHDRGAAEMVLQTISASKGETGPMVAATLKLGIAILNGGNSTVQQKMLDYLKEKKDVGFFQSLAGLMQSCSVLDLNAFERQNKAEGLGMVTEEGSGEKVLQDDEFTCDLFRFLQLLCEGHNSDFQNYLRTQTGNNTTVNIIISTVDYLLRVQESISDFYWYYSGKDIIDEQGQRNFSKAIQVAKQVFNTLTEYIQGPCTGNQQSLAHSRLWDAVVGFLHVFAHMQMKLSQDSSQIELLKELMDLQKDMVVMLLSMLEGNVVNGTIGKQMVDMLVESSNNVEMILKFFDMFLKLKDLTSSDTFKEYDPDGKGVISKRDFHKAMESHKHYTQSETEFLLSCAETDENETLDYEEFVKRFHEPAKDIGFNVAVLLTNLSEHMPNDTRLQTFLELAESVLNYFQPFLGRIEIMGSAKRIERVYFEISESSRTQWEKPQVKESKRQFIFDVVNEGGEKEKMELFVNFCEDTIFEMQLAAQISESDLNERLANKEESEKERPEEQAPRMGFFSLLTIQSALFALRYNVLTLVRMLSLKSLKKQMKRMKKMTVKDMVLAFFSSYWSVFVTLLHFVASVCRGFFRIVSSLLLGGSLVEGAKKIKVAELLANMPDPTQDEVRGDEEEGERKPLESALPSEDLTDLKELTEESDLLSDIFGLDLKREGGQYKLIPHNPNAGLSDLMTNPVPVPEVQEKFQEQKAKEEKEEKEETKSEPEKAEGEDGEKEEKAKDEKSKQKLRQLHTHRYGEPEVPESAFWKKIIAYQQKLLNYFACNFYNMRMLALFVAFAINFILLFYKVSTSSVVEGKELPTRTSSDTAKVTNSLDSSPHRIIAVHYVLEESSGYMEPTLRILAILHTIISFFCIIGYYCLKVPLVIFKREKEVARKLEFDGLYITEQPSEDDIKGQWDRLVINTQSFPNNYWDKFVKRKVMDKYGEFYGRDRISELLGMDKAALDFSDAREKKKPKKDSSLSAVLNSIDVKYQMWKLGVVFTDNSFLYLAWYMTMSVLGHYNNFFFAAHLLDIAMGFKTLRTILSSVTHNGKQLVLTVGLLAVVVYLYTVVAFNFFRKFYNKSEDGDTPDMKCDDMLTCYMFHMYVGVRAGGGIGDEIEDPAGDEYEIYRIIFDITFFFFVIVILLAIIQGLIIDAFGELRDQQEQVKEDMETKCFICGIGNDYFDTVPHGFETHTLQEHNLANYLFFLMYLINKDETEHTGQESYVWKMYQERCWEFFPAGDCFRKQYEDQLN

As to `COc1ccccc1OCCNCC(O)COc1cccc2[nH]c3ccccc3c12` (stereo not drawn) [carvedilol 1, carvedilol], in assay [1], the “ability to inhibit SOICR” value is “ca. 10 μmolar”.
Turning to `COc1ccccc1OCCN1CCC(COc2cccc3[nH]c4ccccc4c23)OCC1=O` (stereo not drawn) [compound 35, 7-[(9H-carbazol-4-yloxy)methyl]-4-[2-(2-methoxyphenoxy)ethyl]-1,4-oxazepan-3-one], the “decrease of SOICR-inhibiting activity on lactamization of 34” value in assay [2] (relative to 34) is listed as “more than 6 fold”.
Take `COc1ccccc1OCCNCC(O)COc1ccc2c(c1)Nc1ccccc1S2(=O)=O` (stereo not drawn) [compound 67, 2-(2-Hydroxy-3-{[2-(2-methoxyphenoxy)ethyl]amino}propoxy)-10H-5λ6,10-phenothiazine-5,5-dione]: in assay [2] (relative to 66), the “decrease of SOICR-inhibiting activity on oxidation of 66 to the sulfone” value is recorded as “more than 10 fold”.
